Test results: paper PMC3139011 (Archives of biochemistry and biophysics, 2011)

Legend:
[1] = target: T1, hDUOX2_1–599 (Homo sapiens, UniProt Q9NRD8); assay: heme titration, difference absorbance spectroscopy; format: binding
T1 sequence (Q9NRD8 1-599): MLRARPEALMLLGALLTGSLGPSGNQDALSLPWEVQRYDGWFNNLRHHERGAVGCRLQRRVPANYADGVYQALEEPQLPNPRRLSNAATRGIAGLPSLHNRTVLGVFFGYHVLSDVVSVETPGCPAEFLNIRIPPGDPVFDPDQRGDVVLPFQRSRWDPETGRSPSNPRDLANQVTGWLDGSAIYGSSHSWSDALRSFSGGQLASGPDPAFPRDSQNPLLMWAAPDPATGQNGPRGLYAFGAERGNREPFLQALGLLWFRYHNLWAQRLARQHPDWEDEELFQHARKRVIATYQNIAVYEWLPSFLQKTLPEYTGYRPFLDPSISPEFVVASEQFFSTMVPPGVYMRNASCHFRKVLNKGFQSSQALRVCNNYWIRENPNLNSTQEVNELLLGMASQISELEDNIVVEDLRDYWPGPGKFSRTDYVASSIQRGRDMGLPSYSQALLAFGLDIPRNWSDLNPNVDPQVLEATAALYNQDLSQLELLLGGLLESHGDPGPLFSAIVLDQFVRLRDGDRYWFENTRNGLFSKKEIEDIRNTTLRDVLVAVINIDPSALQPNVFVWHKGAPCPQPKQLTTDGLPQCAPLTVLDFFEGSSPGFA

[2] = target: T2, hDUOX1_1–593 (Homo sapiens, UniProt Q9NRD9); assay: heme titration, difference absorbance spectroscopy; format: binding
T2 sequence (Q9NRD9 1-593): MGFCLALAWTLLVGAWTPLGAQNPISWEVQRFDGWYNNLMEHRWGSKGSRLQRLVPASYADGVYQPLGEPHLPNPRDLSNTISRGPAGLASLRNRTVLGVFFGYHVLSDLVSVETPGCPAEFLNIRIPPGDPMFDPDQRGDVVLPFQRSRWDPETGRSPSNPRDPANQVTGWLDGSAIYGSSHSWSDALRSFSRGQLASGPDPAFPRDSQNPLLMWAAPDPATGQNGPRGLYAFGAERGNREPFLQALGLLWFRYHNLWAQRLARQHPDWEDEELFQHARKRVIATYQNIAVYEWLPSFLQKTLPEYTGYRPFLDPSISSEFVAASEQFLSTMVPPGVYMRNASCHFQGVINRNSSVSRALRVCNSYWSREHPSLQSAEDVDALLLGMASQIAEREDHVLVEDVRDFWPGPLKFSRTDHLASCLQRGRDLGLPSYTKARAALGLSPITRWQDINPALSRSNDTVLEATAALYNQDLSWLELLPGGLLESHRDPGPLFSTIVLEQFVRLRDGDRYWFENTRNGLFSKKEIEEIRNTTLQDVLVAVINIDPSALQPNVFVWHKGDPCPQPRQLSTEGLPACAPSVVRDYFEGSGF

- Kd [1]: 2400 ± 400 nM
- Kd [2]: 2700 ± 100 nM
Structure (SMILES): C=CC1=C(C)C2=Cc3c(C=C)c(C)c4[n]3[Fe]([Cl])[n]3c(c(C)c(CCC(=O)O)c3=CC3=NC(=C4)C(C)=C3CCC(=O)O)=CC1=N2 [heme]
